Test results from patent publication US20080132531A1, “SYNERGISTIC COMBINATIONS OF N[…] OPIOID ANALGESICS” (Yaupon Therapeutics, Inc., priority 2005, published 2008).

Experiments:
[1] = system: neuropathic rats (sciatic nerve constriction), nerve-injured paw; experiment: Sciatic nerve constriction model of peripheral neuropathy, mechanical (paw pressure) and thermal (plantar) hyperalgesia; type: in vivo, Sprague Dawley rats; details: for ED50: Rattus norvegicus, read-out: ED50 (antinociceptive potency); for ED50 / ED50 (antinociceptive potency): from % MPE vs. log dose curves; for antinociception in response to mechanical and thermal noxious stimuli on the nerve-injured paw: 1, 2, 4, 8 mg/kg IP
Method: (§1) Sprague Dawley (about 90 days old; 350 g) male rats were used (8 rats/drug/experimental group). R,S-norketamine, S-norketamine, R-norketamine (Yaupon Therapeutics Inc.) and R,S-ketamine (Sigma) were dissolved in saline and injected intraperitoneally (IP, 1 ml/kg). Each rat received four doses of a drug (1, 2, 4, 8 mg/kg; repeated block Latin square design; 48 h intervals). Saline served as control.
A sciatic nerve constriction model of peripheral neuropathy previously employed was used [Benett and Xie, 1988]. Briefly, under pentobarbital anesthesia (40 mg/kg, IP) the ligation of sciatic nerve and sham surgery were performed on the left and right hind paws, respectively. Proximal to the sciatic trifuracation, nerve (7 mm) was freed from adhering tissue and four loose ligatures were tied around nerve (1 mm apart) with 4.0 chromic gut, barely constricting the diameter of the nerve. The incision was closed in layers. […] No severe motor impairment was observed.
The analgesic properties of drugs were determined in neuropathic rats. Responsiveness to both mechanical and thermal noxious stimulations was determined in separate groups of rats. Rats were trained on three occasions before initiation of the study. Experiments were performed on days 7, 9, 11 and 14 of recovery from surgery (as this is the time of maximal hyperalgesia [Holtman et al., 2003]). Responses were assessed prior to (baseline, taken twice) and at 15-120 min after injection. The left and right paws were tested alternatively in each rat.
Mechanical hyperalgesia was measured using an increasing amount of weight to the paw [Randall and Selitto, 1957]. The hind paw was placed between a flat surface and a blunt pointer in the Basile Analgesimeter (UGO Basile) and increasing pressure (32 g/s) was applied to the dorsal side of the paw. Vocalization was used as end-point [vocalization threshold, VT (g)]. Cut-off at 300 g prevented tissue damage.
The thermal hyperalgesia was measured by plantar test which used a ramp heat stimulus [Hargreaves et al., 1988]. The radiant heat (60% intensity) was positioned under the glass floor directly beneath the plantar hind paw in Plantar Stimulator Analgesia Meter (IITC, Life Science). Latency of paw withdrawal from the heat source was measured [paw withdrawal threshold, PWT (s)]. A cut-off at 20 s prevented tissue damage.
All data were normalized for preinjection baseline values. Areas under the curves (AUC) were calculated for normalized data. Maximum possible effect was calculated as % MPE=(post drug response−baseline/cut off−baseline)×100. ED50 was calculated from % MPE vs. log dose curves. All data were presented as mean ±SEM of 8 rats. The statistical analysis was performed with use of one and two-way repeated measures analysis of variance (ANOVA), post hoc Student Newman Keulus (SNK), Dunnan and t tests.

[2] = system: intact (unoperated) rats; experiment: Ataxia, behavioral rating scale, intact rats; type: in vivo, Sprague Dawley rats; details: pilot study
Method: as §1
(§2) The behavioral effects of drugs were determined in intact (unoperated) rats. Locomotor activity was determined using the Opto-Varimex infrared photocell-based activity monitor (Columbus Instrument). All activities were scored during 5 min sessions, prior to and 15, 60 and 120 min after injection. All testing were conducted between 10:00-13:00. Assessments were performed in 48 h intervals. Ataxia was determined at 0, […] after injection. The modified behavioral scale [Sturgon et al., 1979] was used for quantification (Table 1).

[3] = system: intact (unoperated) rats; experiment: Locomotor activity in intact rats (Opto-Varimex activity monitor); type: in vivo, Sprague Dawley rats; details: highest dose 8 mg/kg IP
Method: as §1, §2

[4] = system: Sprague-Dawley rats; experiment: Tail-flick test (radiant thermal stimulus); type: in vivo; details: for antinociception, drug alone, IP: morphine 2-10 mg/kg, S-norketamine 0.75-3 mg/kg; for antinociception, drug alone, IT: morphine 3-30 μg, S-norketamine 10-100 μg
Method: A dose response curve was generated by determining the analgesic effects of combining a constant dose of an opioid (e.g., morphine) along with an increasing dose of R,S-norketamine, Male and female Sprague-Dawley rats (n=8/sex) all with an approximate age of 85 to 90 days. Each rat should be weighed, prior to being subjected to any tests, on the day of the experiment. Experiments were performed in 72 hour intervals, and prior to the test, the rats were habituated for three days to handling and the tail-flick procedure without heat exposure. • 1 The tail-flick apparatus (IITC Model 33, Life Science, Woodland Hills, Calif.) is pre-warmed for at least 30 minutes. • 2 The intensity of the lamp is adjusted so that baseline tail-flick latency for the rats is equal to approximately 2.0 seconds. […] Tail-flick latency (“TFL”) is measured twice in an approximate 15 minute intervals and an average of the two times determines the baseline. • 8 Once the baseline value is determined, TFL is measured, following the injection of drugs, at times 15, 30, 60 and 120 minutes.
• Normalize data for baseline value (postinjection value at each time point−average preinjection baseline). • Calculate area under the curve (AUC0-120min) for normalized data. • Calculate maximum area under the curve (AUCmax), assuming 10 second response for each time point. • Calculate % MPE=(AUC0-120min)/(AUCmax)×100. • Post-injection thresholds are compared to the baseline threshold using paired t-test. • The difference between doses will be analyzed by 2 way RM ANOVA. • The difference between sex will be analyzed by 2 way RM ANOVA. • All data are presented as mean ±SEM of n rats.
• Normalized data (NOR): subtract average baseline from each value NOR=(post-injection TFL)−(pre-injection baseline) • 12 Percent maximum effect (MPE): • % MPE=(post-injection value−pre-injection baseline)/(cut-off−pre-injection baseline)×100% • 13 Area under the time action curve (AUC0-120 min) calculated by trapezoidal rule • Individual AUC0-120 min.=(average value over the time interval)×(time interval) • Total AUC0-120 min.: sum of individual AUC • Example: AUC0-120 min., % MPE=(15-0 min)×[(MPE0+MPE15)×½]+(30−15)×[(MPE30+MPE15)×½]
A study was undertaken to determine whether S-norketamine (“norKET”) enhances the analgesic effect of morphine (“MOR”). […] Saline (vehicle) served as a control. Responsiveness to thermal noxious stimuli was determined using the tail-flick assay (baseline tail-flick latency (TFL) ˜2-3 s; cut off TFL=10 s). TFL was determined at 0, 15, 30, 60, 90, and 120 min.
Male Sprague-Dawley rats, approximately 90 days old, weighting about 300 g were used. Intrathecal catheter: Chronic catheterization of the spinal subarachnoid space was performed according to Yaksh and Rudy (1976). Drugs: Morphine sulfate (Mallinckrodt) and S-norketamine hydrochloride (Yaupon Therapeutics, Inc.) were dissolved in saline. Saline served as control. Doses refer to salt forms.
Graded doses of morphine and S-norketamine alone as well as a fixed dose of morphine combined with various doses of S-norketamine were administered […] (IP) or intrathecally (IT) in volumes equal to 1 ml/kg and 10 μl, respectively. Doses were balanced by Latin square design: 2× (4×4). Injections were made at weekly intervals.
Tail flick latencies (TFL) were measured using a standard tail-flick apparatus (LifeScience). Preinjection baseline and cut-off times were equal to 2-3 s and 10 s, respectively. TFL was assessed twice prior to (baseline) and at fixed time points after injection. All data were normalized for baseline. The areas under the time action curves (AUC0-120 min) were calculated for normalized data. The percent of maximum effect was calculated as % MPE=[(TFL-baseline)/(10-baseline)×100] at each time point. Data are presented as mean ±SEM of (n) rats.

[5] = Aun, 1999, cited from earlier work
[6] = Plasma levels of S-norketamine versus antinociception (pilot study); type: in vivo; details: after IP administration in rat
Method: Plasma concentration of S-norketamine 200-700 ng/ml was associated with the significant analgesic effect after IP administration in rat.

[7] = system: Sprague-Dawley rats; experiment: Opioid tolerance development, tail-flick test; type: in vivo; details: for effect on oxycodone tolerance development: S-norketamine given with oxycodone, IP
Method: A tail flick test as described above was administered intrapertoneally to eight Sprague-Dawley rats as described above. The * symbol denotes a statistically difference with oxycodone and norketamine combined versus the two drugs used alone. Data were analyzed with the SNK method, with P less than 0.05. […] A tail flick test as described above was administered intrapertoneally to eight Sprague-Dawley rats as described above. The * symbol denotes a difference with oxycodone used alone as compared to the combination of oxycodone with S norketameine and the +symbol denotes a difference from day 1. Data were analyzed with the SNK method, with P less than 0.05.

[8] = system: rat; experiment: Analgesic dose of norketamine in the rat; type: in vivo
Method: An “optimal” dose is defined as a dose of an analgesic, when taken alone, is sufficient to provide analgesic relief. In the rat, for example, an optimal dose of norketamine is about 8 mg/kg intraperitoneally (IP). A “sub-optimal” dose is defined as about 1 to about 60% of the optimal dose used to induce analgesia; more preferably about 5% to about 40%, and even more preferably about 10% to about 20%. A “sub-analgesic” does is defined as a dose at which little to no analgesic effect is provided. For example, a sub-analgesic dose of norketamine is less than about 3 mg/kg. Typically, a sub-analgesic dose correlates with less than about 5 AUC units or less than about 5% MPE (maximum possible effect).

[9] = system: NMDA receptor; details: Ebert et al., 1997; cited from earlier work
[10] = system: rats; details: intravenous or intraspinal; cited from earlier work

SMILES: CNC1(c2ccccc2Cl)CCCCC1=O (racemic) [R,S-ketamine, 2-(2-chlorophenyl)-2-(methylamino)-cyclohexanone, reference compound]
- ED50 ([1]; nerve-injured paw, IP): 15.8 ± 0.38 mg/kg
- ataxia [2]: marked ataxia

SMILES: NC1(c2ccccc2Cl)CCCCC1=O (racemic) [R,S-norketamine, 2-(2-chlorophenyl)-2-amino-cyclohexanone]
- ED50 ([1]; nerve-injured paw, IP): 11.3 ± 0.23 mg/kg
- antinociception in response to mechanical and thermal noxious stimuli on the nerve-injured paw ([1]; nerve-injured paw): dose-related antinociception
- duration of antinociceptive effect ([1]; nerve-injured paw, IP): > 2 h
- antinociception on the control (sham-operated) paw ([1]; IP): No antinociception
- motor (depressive) / locomotor effect [3]: less pronounced
- ataxia [2]: no ataxia

SMILES: CN1CC[C@]23c4c5ccc(O)c4O[C@H]2[C@@H](O)C=C[C@H]3[C@H]1C5 [Morphine, reference compound]
- antinociception, drug alone, IP ([4]; IP): dose-related antinociception
- antinociception, drug alone, IT [4]: dose-related antinociception
- % MPE ([4]; morphine alone 30 μg IT): 60%
- % MPE ([4]; morphine alone 10 mg/kg IP): 100%

SMILES: N[C@@]1(c2ccccc2Cl)CCCCC1=O [R-norketamine]
- antinociception in response to mechanical and thermal noxious stimuli on the nerve-injured paw ([1]; nerve-injured paw): attenuated, in dose-related fashion
- ED50 (antinociceptive potency) ([1]; nerve-injured paw, IP): 51.1 ± 0.54 mg/kg
- antinociception on the control (sham-operated) paw ([1]; IP): Neither drug had effect

SMILES: CN[C@]1(c2ccccc2Cl)CCCCC1=O [S-ketamine, reference compound]
- potency relative to R-ketamine [5]: twice as potent as R-ketamine

SMILES: N[C@]1(c2ccccc2Cl)CCCCC1=O [S-norketamine]
- antinociception in response to mechanical and thermal noxious stimuli on the nerve-injured paw ([1]; nerve-injured paw): attenuated, in dose-related fashion
- ED50 (antinociceptive potency) ([1]; nerve-injured paw, IP): 7.3 ± 0.18 mg/kg
- antinociception on the control (sham-operated) paw ([1]; IP): Neither drug had effect
- plasma concentration associated with the significant analgesic effect [6]: 200 to 700 ng/mL
- motor (depressive) / locomotor effect [3]: less for S than R isomer
- ataxia [2]: no ataxia
- ability to enhance morphine analgesia compared with ketamine-morphine interaction ([4]; IP, comparison with Holtman et al., 2003): greater than that previously demonstrated for ketamine-morphine
- antinociception, drug alone, IP ([4]; IP): did not produce an antinociceptive effect
- antinociception, drug alone, IT [4]: did not produce an antinociceptive effect
- potentiation of the antinociceptive effect of low dose morphine, IP ([4]; S-norketamine 0.75-3 mg/kg IP with morphine 3 mg/kg IP): dose-dependently potentiated
- potentiation of the antinociceptive effect of low dose morphine, IT ([4]; S-norketamine 10-100 μg IT with morphine 0.5 μg IT): dose-dependently potentiated
- effect on morphine tolerance ([7]; S-norketamine given with morphine): reduction of morphine tolerance
- effect on oxycodone tolerance development [7]: tolerance of oxycodone is inhibited
- effect on oxycodone tolerance development ([7]; listed as S-norketamine HCl): attenuation of oxycodone tolerance development

SMILES: NC1(c2ccccc2Cl)CCCCC1=O (centres unmarked) [norketamine, 2-(2-chlorophenyl)-2-amino-cyclohexanone]
- sub-analgesic dose (little to no analgesic effect) ([8]; in vivo): less than 3 mg/kg
- optimal dose (sufficient alone to provide analgesic relief) ([8]; intraperitoneally (IP)): about 8 mg/kg
- NMDA receptor binding relative to ketamine enantiomers [9]: less tightly than either S- or R-ketamine
- anesthetic and analgesic potency relative to ketamine ([5]; speculated): one third that of ketamine
- adverse sequelae relative to an equal dose of ketamine [10]: fewer of the adverse sequelae
